Measured values published in patent EP1043318A1 (priority 1997, dated 1999).

Test system: M. tuberculosis 16R
Format: cell-based
Settings: strain resistant to control preparations; concentration of the preparation 50.0 g/l (table title); incubated 30 days

Row | Compound | M. tuberculosis 16R growth
1 | CC[C@@H](CO)NCCN[C@@H](CC)CO [Ethambutol] | growth
2 | NNC(=O)c1ccncc1 [Isoniazid] | growth
3 | [H]/N=C(/N)N[C@H]1[C@H](O)[C@@H](O)[C@H](O[C@@H]2O[C@@H](C)[C@](O)(C=O)[C@H]2O[C@@H]2O[C@@H](CO)[C@H](O)[C@@H](O)[C@@H]2NC)[C@@H](N/C(N)=N\[H])[C@@H]1O [Streptomycin] | growth
4 | O=C1NC(=S)NC(=O)C1C(c1ccc([N+](=O)[O-])cc1)C1C(=O)NC(=S)NC1=O [X, 5,5'-(p-nitrobenzylidene)bis (2-thiobarbituric) acid] | complete suppression of growth
